Tests used:
[1] = LNP size and polydispersity, Zetasizer Ultra; format: physicochemical
From the text: (§1) All other compositions (i.e., compositions of MC3 (a commercially available ionizable lipid having a chemical name of (6Z,9Z,28Z,31Z)-heptatriacont-6,9,28,31-tetraene-19-yl 4-(dimethylamino)butanoate, and compositions of novel ionizable lipids 7669, 7671, 7668, 767, 7650) are composed of ionizable lipid:structural lipid:sterol:PEG-lipid (SDA lipid #:DSPC:cholesterol:14:0 PEG2000 PE) at a molar ratio of […], respectively. Lipids are solubilized in ethanol. Compositions are then handled as above, except the formulations are maintained at ionizable lipid to mRNA N:P ratio of 6:1. The lipid mix and mRNA solution are mixed at a 1:3 ratio by volume, respectively, on a NanoAssemblr Ignite (Precision Nanosystems) at a total flow rate of 9 mL/min. Resulting compositions are then loaded into Slide-A-Lyzer G2 dialysis cassettes (10 k MWCO) and dialyzed in 200 times sample volume of 1×PBS for 4 hrs at room temp with gentle stirring. The PBS is refreshed, and the compositions are further dialyzed for at least 14 hrs at 4° C. with gentle stirring. The dialyzed compositions are then collected and concentrated by centrifugation at 2000×g using Amicon Ultra centrifugation filters (100 k MWCO). Concentrated particles are characterized for size, polydispersity, and particle concentration using Zetasizer Ultra (Malvern Panalytical) and for mRNA encapsulation efficiency using Quant-iT RiboGreen RNA Assay Kit (ThermoFisher Scientific).
(§2) The lipid mix and mRNA solution were mixed at a 1:3 ratio by volume, respectively, on the NanoAssemblr Ignite (Precision Nanosystems) at a total flow rate of 9 mL/min. Resulting formulations were then loaded into Slide-A-Lyzer G2 dialysis cassettes (10 k MWCO) and dialyzed in 200 times sample volume of 1×PBS for 2 hrs at room temperature. The PBS was refreshed, and the formulations were further dialyzed for at least 14 hrs at 4° C. with gentle stirring. The dialyzed formulations were then collected and concentrated by centrifugation at 3000×g using Amicon Ultra centrifugation filters (100 k MWCO). The concentrated formulations were characterized for size, polydispersity, and particle concentration using Zetasizer Ultra (Malvern Panalytical) and for mRNA encapsulation efficiency using Quant-iT RiboGreen RNA Assay Kit (ThermoFisher Scientific).
(§3) For each LNP composition, the lipid mix and mRNA solution were mixed at a 1:3 ratio by volume, respectively, on a NanoAssemblr Ignite (Precision Nanosystems) at a total flow rate of 9 mL/min. The resulting compositions were then loaded into Slide-A-Lyzer G2 dialysis cassettes (10 k MWCO) and dialyzed in 200 times sample volume of 1×PBS for 2 hours at room temperature with gentle stirring. The PBS was refreshed, and the compositions were further dialyzed for at least 14 hours at 4° C. with gentle stirring. The dialyzed compositions were then collected and concentrated by centrifugation at 3000×g using Amicon Ultra centrifugation filters (100 k MWCO). The concentrated particles were characterized for size, polydispersity, and particle concentration using Zetasizer Ultra (Malvern Panalytical) and for mRNA encapsulation efficiency using Quant-iT RiboGreen RNA Assay Kit (ThermoFisher Scientific).

[2] = mRNA encapsulation efficiency, Quant-iT RiboGreen RNA Assay; format: physicochemical
From the text: as §1, §2, §3

Balb/c mice = test: In-vivo bioluminescent imaging after IV injection of Fluc mRNA LNP; settings: for Bioluminescence (IV) Liver / Bioluminescence (IV) Lung / Bioluminescence (IV) Spleen / Bioluminescence (IV) Whole Body / Spleen: Liver Ratio: Example 5 LNP (DOPE 35:16:46.5:2.5), 5 μg FLUC + 5 μg EPO; for Bioluminescence (IV) Liver / Bioluminescence (IV) Lung / Bioluminescence (IV) Spleen / Bioluminescence (IV) Whole Body / Bioluminescence Liver / Bioluminescence Lung / Bioluminescence Spleen: 4-6 hours post-dose; for Bioluminescence (IV) Liver / Bioluminescence (IV) Lung / Bioluminescence (IV) Spleen / Bioluminescence (IV) Whole Body / Spleen: Liver Ratio / Bioluminescence Liver / Bioluminescence Lung / Bioluminescence Spleen: IV; for Spleen: Liver Ratio: ratio of bioluminescence; for Bioluminescence Liver / Bioluminescence Lung / Bioluminescence Spleen: 5 ug Fluc+5 ug EPO mRNA; for bioluminescence in the liver, spleen, and lung: used as part of an ionizable lipid scaffold (LNP), Table 1
Protocol: 8-9 week old female Balb/c mice are utilized for bioluminescence-based ionizable lipid screening efforts. Mice are obtained from Jackson Laboratories (JAX Stock: 000651) and allowed to acclimate for one week prior to manipulations. Animals are placed under a heat lamp for a few minutes before introducing them to a restraining chamber. The tail is wiped with alcohol pads (Fisher Scientific) and 100 μL of a lipid nanoparticle composition descrbed above containing 10 ug total mRNA (5 ug Fluc+5 ug EPO) is injected intravenously using a 29 G insulin syringe (Covidien). Any resulting bleeding is stemmed using a sterile gauze pad (Fisher Scientific) and animals are placed back into their home cage. 4-6 hours post-dose, animals are injected with 200 μL of 15 mg/mL D-Luciferin (GoldBio) and placed in an isoflurane induction chamber set to deliver 2.5% isoflurane delivered at an oxygen flow rate of 1-2 liters per min. After 5 minutes of isoflurane exposure, mice are placed in set nose cones inside the IVIS Lumina LT imager (PerkinElmer). LivingImage software is utilized for imaging. Whole body bio-luminescence is captured at auto-exposure after which animals are removed from the IVIS and placed into a CO2 chamber for euthanasia. Cardiac puncture is performed on each animal after placing it in dorsal recumbency, and blood collection is performed using a 25 G insulin syringe (BD). Blood is collected in Lithium-Heparin coated tubes (Fisher Scientific) and immediately placed on ice. Once all blood samples are collected, tubes are spun at 2000 G for 10 minutes using a tabletop centrifuge and plasma is aliquoted into individual Eppendorf tubes (Fisher Scientific) and stored at −80 C for subsequent EPO quantification. EPO levels in plasma are determined using EPO MSD kit (Meso Scale Diagnostics).
8-9 week old female Balb/c mice were utilized for bioluminescence-based ionizable lipid screening efforts. Mice were obtained from Jackson Laboratories (JAX Stock: 000651) and allowed to acclimate for one week prior to manipulations. Animals were placed under a heat lamp for a few minutes before introducing them to a restraining chamber. The tail was wiped with alcohol pads (Fisher Scientific) and, for each LNP composition descrbed above, 100 μL of a lipid nanoparticle composition descrbed above containing 10 μg total mRNA (5 μg Fluc+5 μg EPO, 5 μg Fluc+5 μg Cre, or 5 μg EGFP) was injected intravenously using a 29 G insulin syringe (Covidien).
4-6 hours post-dose, animals were injected with 200 μL of 15 mg/mL D-Luciferin (GoldBio), and placed in set nose cones inside the IVIS Lumina LT imager (PerkinElmer). LivingImage software was utilized for imaging. Whole body bio-luminescence was captured at auto-exposure after which animals are removed from the IVIS and placed into a CO2 chamber for euthanasia. Cardiac puncture was performed on each animal after placing it in dorsal recumbency, and blood collection was performed using a 25 G insulin syringe (BD). Once all blood samples were collected, tubes are spun at 2000 G for 10 minutes using a tabletop centrifuge and plasma was aliquoted into individual Eppendorf tubes (Fisher Scientific) and stored at −80° C. for subsequent EPO quantification. EPO levels in plasma were determined using EPO MSD kit (Meso Scale Diagnostics).

[3] = Example 5 LNP lipid:DOPE:Plant Cholesterol:DMPE-PEG2k 35:16:46.5:2.5, FLUC/EPO 1:1 mRNA, N:P 6:1
[4] = LNP ionizable lipid:DOPE:Plant Chol.:DMPE-PEG2k 35:16:46.5:2.5 (Table 1)
[5] = LNP ionizable lipid:DSPC:Plant Chol.:DMPE-PEG2k 50:10:38.5:1.5
[6] = LNP lipid:DOPE:Plant Chol.:DMPE-PEG2k 35:16:46.5:2.5 (Table 1)
[7] = LNP lipid:DSPC:Plant Chol.:DMPE-PEG2k 50:10:38.5:1.5

CCCCCCCCCCCOC(=O)CCCCCN(CCCCCCCC(=O)OC(CCCCCCCC)CCCCCCCC)CCNC(=O)/C=C/C(=O)NCCN(CCCCCCCC(=O)OC(CCCCCCCC)CCCCCCCC)CCCCCC(=O)OCCCCCCCCCCC [Compound 2252, 1-octylnonyl 8-[2-[[(E)-4-[2-[[8-(1-octylnonoxy)-8-oxo-octyl]-(6-oxo-6-undecoxy-hexyl)amino]ethylamino]-4-oxo-but-2enoyl]amino]ethyl-(6-oxo-6-undecoxy-hexyl)amino]octanoate]
PDI [1, 3]: 0.13
Size (nm) [1, 3]: 70.0 nm
PDI [1, 4]: 0.13
Size (nm) [1, 4]: 69.98 nm
PDI [1, 5]: 0.05
Size (nm) [1, 5]: 126.40 nm
% EE [2, 3]: 94.5%
% EE [2, 4]: 94.5%
Bioluminescence (IV) Liver (Balb/c mice): 1.5E+07
Bioluminescence (IV) Lung (Balb/c mice): 3.3E+03
Bioluminescence (IV) Spleen (Balb/c mice): 2.3E+05
Bioluminescence (IV) Whole Body (Balb/c mice): 7.2E+07
Spleen: Liver Ratio (Balb/c mice): 0.015
Bioluminescence Liver (Balb/c mice; [6]): 1.52E+07
Bioluminescence Lung (Balb/c mice; [6]): 3.27E+03
Bioluminescence Spleen (Balb/c mice; [6]): 2.32E+05
Bioluminescence Liver (Balb/c mice; [7]): 2.41E+05
Bioluminescence Lung (Balb/c mice; [7]): 1.03E+04
Bioluminescence Spleen (Balb/c mice; [7]): 4.69E+05
bioluminescence in the liver, spleen, and lung (Balb/c mice): improved bioluminescence

C=C(CN(CCCCCCCC(=O)OC(CCCCCCCC)CCCCCCCC)CCCCCC(=O)OCCCCCCCCCCC)CN(CCCCCCCC(=O)OC(CCCCCCCC)CCCCCCCC)CCCCCC(=O)OCCCCCCCCCCC [Compound 2253, 1-octylnonyl 8-[2-[[[8-(1-octylnonoxy)-8-oxo-octyl]-(6-oxo-6-undecoxy-hexyl)amino]methyl]allyl-(6-oxo-6-undecoxy-hexyl)amino]octanoate]
PDI [1, 3]: 0.23
Size (nm) [1, 3]: 107.9 nm
PDI [1, 4]: 0.23
Size (nm) [1, 4]: 107.87 nm
PDI [1, 5]: 0.18
Size (nm) [1, 5]: 120.70 nm
% EE [2, 3]: 82.7%
% EE [2, 4]: 82.7%
Bioluminescence (IV) Liver (Balb/c mice): 1.3E+03
Bioluminescence (IV) Lung (Balb/c mice): 7.2E+02
Bioluminescence (IV) Spleen (Balb/c mice): 1.2E+03
Bioluminescence (IV) Whole Body (Balb/c mice): 3.8E+03
Spleen: Liver Ratio (Balb/c mice): 0.937
Bioluminescence Liver (Balb/c mice; [6]): 1.33E+03
Bioluminescence Lung (Balb/c mice; [6]): 7.18E+02
Bioluminescence Spleen (Balb/c mice; [6]): 1.24E+03
Bioluminescence Liver (Balb/c mice; [7]): 1.30E+03
Bioluminescence Lung (Balb/c mice; [7]): 6.16E+02
Bioluminescence Spleen (Balb/c mice; [7]): 9.98E+02
bioluminescence in the liver, spleen, and lung (Balb/c mice): improved bioluminescence

CCCCCCCCCC(=O)OCCCCCCCN(CCCCCCCC(=O)OC(CCCCCCCC)CCCCCCCC)CCNC(=O)CCC(=O)NCCN(CCCCCCCOC(=O)CCCCCCCCC)CCCCCCCC(=O)OC(CCCCCCCC)CCCCCCCC [Compound 2272, 7-[2-[[4-[2-[7-decanoyloxyheptyl-[8-(1-octylnonoxy)-8-oxo-octyl]amino]ethylamino]-4-oxo-butanoyl]amino]ethyl-[8-(1-octylnonoxy)-8-oxo-octyl]amino]heptyl decanoate]
PDI [1, 3]: 0.07
Size (nm) [1, 3]: 68.7 nm
% EE [2, 3]: 92.6%
Bioluminescence (IV) Liver (Balb/c mice): 1.8E+07
Bioluminescence (IV) Lung (Balb/c mice): 1.5E+04
Bioluminescence (IV) Spleen (Balb/c mice): 1.0E+06
Bioluminescence (IV) Whole Body (Balb/c mice): 1.3E+08
Spleen: Liver Ratio (Balb/c mice): 0.055

CCCCCCCCC(CCCCCCCC)OC(=O)CCCCCCCN(CCCCCCCC(=O)OC(CCCCCCCC)CCCCCCCC)CCNC(=O)CCC(=O)NCCN(CCCCCCCC(=O)OC(CCCCCCCC)CCCCCCCC)CCCCCCCC(=O)OC(CCCCCCCC)CCCCCCCC [Compound 2275, 1-octylnonyl 8-[2-[[4-[2-[bis[8-(1-octylnonoxy)-8-oxo-octyl]amino]ethylamino]-4-oxo-butanoyl]amino]ethyl-[8-(1-octylnonoxy)-8-oxo-octyl]amino] octanoate]
PDI [1, 3]: 0.10
Size (nm) [1, 3]: 67.4 nm
% EE [2, 3]: 94.7%
Bioluminescence (IV) Liver (Balb/c mice): 6.8E+07
Bioluminescence (IV) Lung (Balb/c mice): 1.6E+04
Bioluminescence (IV) Spleen (Balb/c mice): 2.3E+05
Bioluminescence (IV) Whole Body (Balb/c mice): 4.8E+08
Spleen: Liver Ratio (Balb/c mice): 0.003

CCCCCCCCCCCNC(=O)CCCCCN(CCCCCCCC(=O)NC(CCCCCCCC)CCCCCCCC)CCNC(=O)CCC(=O)NCCN(CCCCCCCC(=O)NC(CCCCCCCC)CCCCCCCC)CCCCCC(=O)NCCCCCCCCCCC [Compound 2282, N,N′-bis[2-[[8-(1-octylnonylamino)-8-oxo-octyl]-[6-oxo-6-(undecylamino)hexyl]amino]ethyl]butanediamide]
PDI [1, 3]: 0.16
Size (nm) [1, 3]: 73.1 nm
% EE [2, 3]: 94.7%
Bioluminescence (IV) Liver (Balb/c mice): 5.7E+07
Bioluminescence (IV) Lung (Balb/c mice): 3.8E+04
Bioluminescence (IV) Spleen (Balb/c mice): 5.4E+06
Bioluminescence (IV) Whole Body (Balb/c mice): 7.7E+08
Spleen: Liver Ratio (Balb/c mice): 0.092

Source: patent publication US20250051263A1, “NOVEL IONIZABLE LIPIDS AND LIPID NANOPARTICLES AND METHODS OF USING THE SAME” (Sail Biomedicines, Inc., priority 2021, published 2025)
